Series [1] concerns the target T1, UGT2B7 (Homo sapiens, UniProt P16662).
T1 sequence (P16662 24-529): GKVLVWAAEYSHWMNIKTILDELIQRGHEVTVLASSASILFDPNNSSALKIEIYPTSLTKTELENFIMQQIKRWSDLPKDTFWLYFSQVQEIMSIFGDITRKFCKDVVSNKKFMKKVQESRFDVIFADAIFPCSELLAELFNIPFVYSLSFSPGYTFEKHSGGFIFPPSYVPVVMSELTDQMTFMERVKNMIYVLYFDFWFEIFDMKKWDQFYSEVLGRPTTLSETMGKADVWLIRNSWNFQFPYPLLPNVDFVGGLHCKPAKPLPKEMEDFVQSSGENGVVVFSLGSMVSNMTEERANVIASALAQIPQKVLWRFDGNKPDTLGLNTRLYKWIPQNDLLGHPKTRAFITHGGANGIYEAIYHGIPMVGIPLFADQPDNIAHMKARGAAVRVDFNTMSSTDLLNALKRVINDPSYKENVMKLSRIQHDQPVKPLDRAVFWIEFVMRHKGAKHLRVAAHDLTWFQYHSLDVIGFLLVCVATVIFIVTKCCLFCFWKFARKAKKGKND
An excerpt:
Heterologous expression and characterization of full length UGT 2B7.
Stable UGT2B7 cell lines were established from embryonic human kidney cells (HK293 cells) and microsomal membrane fractions from these cells were used to assess the properties of the recombinant enzyme. […] The specificity of the purified UGT2B7 will be assessed by determining overall catalytic efficiency with each aglycone substrate, as reflected in a ratio of the two fundamental Michaelis kinetic parameters, Vmax/Km. Reaction rates will be determined over a range of substrate concentrations and nonlinear regression will be used to fit the UGT rate data to velocity versus substrate curves (Graph Pad, Prism). Vmax/Km values will be determined and compared with those determined with the enzyme isolated from HK293 cells (Table 1). […] This ratio will be determined for the purified enzyme using HPLC-based methods for separation and quantification of the two glucuronides.

In series [2] the target is T2, UGT2B7Y(268) (Homo sapiens, UniProt P16662).
T2 sequence (P16662 24-529): T1 sequence (P16662 24-529)
To be noted: human.

For series [3], the target named is T3, UGT2B7H(268) (Homo sapiens, UniProt P16662, Y268H).
T3 sequence (P16662 24-529 Y268H): T1 sequence (P16662 24-529) with Y245H
To be noted: human.

The target of series [4] is T2, UGT2B7Y(268). Nature of the series: in vitro.
In series [5] the target is T3, UGT2B7H(268). Nature of the series: in vitro.
Series [6] addresses T2, UGT2B7Y(268). As to the kind of experiment: Kinetics of glucuronidation, membrane preparations of HK293 cells stably expressing UGT2B7Y(268).
Series [7] has as its target T3, UGT2B7H(268). Nature of the series: Kinetics of glucuronidation, membrane preparations of HK293 cells stably expressing UGT2B7H(268).
Series [8] has as its target T2, UGT2B7Y(268). To be noted: reported by one laboratory; cited from earlier work.
Series [9] concerns the target T3, UGT2B7H(268). To be noted: reported by another laboratory; cited from earlier work.

These results are taken from patent US6551790B2, “Process for glucuronidation screening” (PanVera LLC, priority 1998, dated 2003).

Where a chain is given by its changes, count along the chain named. Like-named read-outs stand apart in the source and are kept apart here.

As for `COc1ccc2c3c1O[C@H]1[C@@H](O)C=C[C@H]4[C@@H](C2)N(C)CC[C@@]341` [codeine], the “Glucuronidation activity towards opioids” value in series [1] was “demonstrated”. Besides, in [1], the “conversion to the 6-O-glucuronide by UGT2B7” value was “efficiently converted”. For the same compound, the “efficiency ratio of glucuronidation, 3-OH to 6-OH” value in series [1] (human, pH 7.7) is on record as 7 to 1. In addition, the Km in series [2] was determined as 360 µM; in series [3] it was 550 µM; in [4], 230 µM; in series [5], 791 µM. Besides, the Vmax is 190, 40 pmol/min/mg protein in [6] and 97, 110 pmol/min/mg protein in series [7].

As for `CC1CCC(C(C)C)C(O)C1` (centres unmarked) [menthol], the “activity toward glucuronide formation” value in series [8] is “active”; in [9], “inactive”.
